This passage reports Ki, inhibition and IC50 results from patent US6620828B2, “Thiazole compounds and pharmaceutical compositions for inhibiting protein kinases and methods for their use” (Agouron Pharmaceuticals, Inc., priority 1999, dated 2003).

Experiment [1] concerns the target T1, unphosphorylated VEGF-R2Δ50 (FLVK) (Homo sapiens, UniProt P35968, DEL940-989/E990V).
T1 construct: VEGF-R2Δ50 contains residues 806-939 and 990-1171; made in house; host or cells: baculovirus/insect cells
As to the kind of experiment: VEGF-R2 coupled spectrophotometric assay, unphosphorylated enzyme (FLVK). In kind it is biochemical. As to conditions: Table 3; some entries 'Slow binder'. Put shortly: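 Unphosphorylated VEGF-R2Δ50 (5 to 40 nM) with 20 mM poly(E4Y1), 3 mM ATP, 60 mM MgCl2, 2 mM MnCl2 in 200 mM Hepes pH 7.5. ADP production coupled via PK/LDH to NADH oxidation, read at 340 nm. Ki from activity at varying compound concentrations.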

Experiment [2] concerns the target T2, FGF-R1 (Homo sapiens, UniProt P11362, C488A/C584S/L457V).
T2 construct: starting from the endogenous methionine residue 456 to glutamate 766; made in house; host or cells: baculovirus vector expression system
As to the kind of experiment: FGF-R spectrophotometric assay. As to conditions: Table 3; % inh @ 1 uM; read-out: FGF-P Ki (nM) (% inh @ 1 uM). It is filed as biochemical. The procedure: FGF-R1 Construct for Assay: The intracellular kinase domain of human FGF-R1 was expressed using the baculovirus vector expression system starting from the endogenous methionine residue 456 to glutamate 766, according to the residue numbering system of Mohammadi et al., Mol. Cell. Biol., 16, 977-989 (1996). In addition, the construct also has the following 3 amino acid substitutions: L457V, C488A, and C584S.
The spectrophotometric assay was carried out as described above for VEGF-R2, except for the following changes in concentration: FGF-R=50 nM, ATP=2 mM, and poly(E4Y1)=15 mM.

For experiment [3], the system named is human umbilical vein endothelial cells (HUVEC). As to the kind of experiment: HUVEC proliferation assay. In kind it is cell-based. The conditions noted are these: Homo sapiens, HUVEC, Table 3. Put shortly: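 Readout was MTT dye reduction (A595) after 72 h of stimulation with VEGF at 6 ng/ml final. Compound, in 0.1% DMSO final, was added 1 h before VEGF to HUVEC starved 24 h in 1% FBS. % inhibition was scaled between VEGF-alone and unstimulated wells; IC50 was fitted from triplicate dose curves.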

Experiment [4] concerns lung cancer cells (line MV522). The experiment can be described thus: Cancer cell proliferation (MV522) assay. It is filed as cell-based. As to conditions: MV522, Table 3.
The target in experiment [5] is T3, LCK tyrosine kinase (Homo sapiens, UniProt P06239, C224D/P223M).
T3 construct: starting from amino acid residue 223 to the end of the protein at residue 509; made in house; host or cells: insect cells
The experiment can be described thus: LCK spectrophotometric assay. In kind it is biochemical. As to conditions: Table 3, read-out: LCK (% inh @ 1 uM).

Experiment [6] addresses T4, phosphorylated VEGF-R2Δ50 (FLVK-P) (Homo sapiens, UniProt P35968, DEL940-989/E990V).
T4 construct: VEGF-R2Δ50 contains residues 806-939 and 990-1171; made in house; host or cells: baculovirus/insect cells
The experiment can be described thus: VEGF-R2 coupled spectrophotometric (FLVK-P) assay. In kind it is biochemical. The conditions noted are these: Table 3; at 50 nM. Put shortly:
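Baculovirus-expressed human VEGF-R2Δ50 (residues 806-939/990-1171, E990V) was autophosphorylated with 3 mM ATP, 40 mM MgCl2 for 2 h at 4° C. ADP formation was coupled via PK/LDH to NADH oxidation, read at 340 nm, with 5.1 mM poly(E4Y1), 1 mM ATP, 25 mM MgCl2, Hepes pH 7.5. Ki came from activity across compound concentrations.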

T2 sequence (P11362 456-766 L457V/C488A/C584S): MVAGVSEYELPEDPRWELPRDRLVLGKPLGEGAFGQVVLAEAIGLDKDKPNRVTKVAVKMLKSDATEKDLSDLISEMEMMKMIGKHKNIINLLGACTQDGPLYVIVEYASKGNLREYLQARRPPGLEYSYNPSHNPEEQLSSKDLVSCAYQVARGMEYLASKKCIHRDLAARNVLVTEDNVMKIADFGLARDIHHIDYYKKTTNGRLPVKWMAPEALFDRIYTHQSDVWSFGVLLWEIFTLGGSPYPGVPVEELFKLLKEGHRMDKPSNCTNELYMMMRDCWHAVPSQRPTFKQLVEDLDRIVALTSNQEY
T3 sequence (P06239 223-509 P223M/C224D): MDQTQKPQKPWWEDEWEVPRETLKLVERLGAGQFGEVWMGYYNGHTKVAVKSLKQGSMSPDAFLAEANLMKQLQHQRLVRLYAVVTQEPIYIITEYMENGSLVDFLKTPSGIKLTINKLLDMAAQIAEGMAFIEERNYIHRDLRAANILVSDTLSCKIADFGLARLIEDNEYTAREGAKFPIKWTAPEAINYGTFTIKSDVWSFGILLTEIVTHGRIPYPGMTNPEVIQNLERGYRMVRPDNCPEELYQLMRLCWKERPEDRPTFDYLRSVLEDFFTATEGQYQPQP
T1 sequence (P35968 with tags, fused parts or gaps DEL940-989/E990V limits assumed): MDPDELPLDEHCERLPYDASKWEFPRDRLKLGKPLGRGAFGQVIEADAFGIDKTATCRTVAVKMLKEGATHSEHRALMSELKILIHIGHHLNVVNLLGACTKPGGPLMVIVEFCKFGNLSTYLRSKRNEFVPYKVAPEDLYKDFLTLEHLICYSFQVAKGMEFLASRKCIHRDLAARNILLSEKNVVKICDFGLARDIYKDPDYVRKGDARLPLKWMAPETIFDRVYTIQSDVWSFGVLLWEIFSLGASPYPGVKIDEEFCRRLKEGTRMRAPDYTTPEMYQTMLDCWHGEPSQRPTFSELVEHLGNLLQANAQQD
T4 sequence (P35968 with tags, fused parts or gaps DEL940-989/E990V limits assumed): as above

Take `Cc1cccc(C(=O)Nc2cccc(-c3noc(-c4sc(NC(=O)NCCCN5CCOCC5)nc4N)n3)c2)c1` [O(12), N-[3-(5-{4-Amino-2-[3-(3-morpholin-4-yl-propyl)-ureido]-thiazol-5-yl}-[1,2,4]oxadiazol-3-yl)-phenyl]-3-methyl-benzamide]: the Ki (in general, a dissociation constant, usually derived from enzyme kinetics or from competition with a known ligand) in experiment [1] was determined as 0.19 nM. Further, the inhibition at 1 µM in experiment [2] is 33%; in experiment [5] it was 21%. Further, the concentration for half-maximal inhibition (IC50) (in general, the concentration that inhibits the measured activity by half) in experiment [3] was 45 nM; in experiment [4], 44000 nM.
The matching figures for `COc1cc(Nc2nc(N)c(-c3nc(-c4cccc(NC(=O)CC5CC6CCC5C6)c4)cs3)s2)cc(OC)c1OC` (stereo not shown) [D(59), N-{3-[4′-Amino-2′-(3,4,5-trimethoxy-phenylamino)-[2,5′]bithiazolyl-4-yl]-phenyl}-2-bicyclo[2.2.1]hept-2-yl-acetamide]: 2.8 nM, 54%, 44%, more than 100 nM and 3100 nM.
For `COc1cc(Nc2nc(N)c(-c3nc(-c4cccc(NC(=O)c5cnc6ccccc6c5)c4)cs3)s2)cc(OC)c1OC` [D(60), Quinoline-3-carboxylic acid {3-[4′-amino-2′-(3,4,5-trimethoxy-phenylamino)-[2,5′]bithiazolyl-4-yl]-phenyl}-amide], the affinity in experiment [1], expressed as Ki, was 1.4 nM. The inhibition at 1 µM came to 10% in experiment [2] and 11% in experiment [5]. Also, the IC50 in experiment [3] is more than 100 nM.
In experiment [1], `COc1cc(Nc2nc(N)c(-c3nc(-c4cc(NC(=O)OC(C)(C)C)ccc4Cl)no3)s2)cc(OC)c1OC` [B(12), (3-{5-[4-Amino-2-(3,4,5-trimethoxy-phenylamino)-thiazol-5-yl]-[1,2,4]oxadiazoyl}-4-chloro-phenyl)-carbamic acid tert-butyl ester] registered an inhibitory constant (Ki) of 1.6 nM. Further, the results for the inhibition at 1 µM in experiment [2] and in experiment [5] were 52% and 29%, respectively. Further, the half-inhibitory concentration (IC50) in experiment [3] was 15 nM; in experiment [4] it was 3600 nM.
On the same counts, the results for `CNC(=O)Nc1nc(N)c(-c2nc(-c3cccc(NC(=O)c4cccc(OC)c4)c3)cs2)s1` [F(11), N-{3-[4′-Amino-2′-(3-methyl-ureido)-[2,5′]bithiazolyl-4-yl]-phenyl}-3-methoxy-benzamide] are 0.26 nM, 25%, 15%, 12 nM and 9600 nM.
For `COc1cc(Nc2nc(N)c(-c3nc(-c4cccc(NC(=O)c5ncoc5-c5ccccc5)c4)cs3)s2)cc(OC)c1OC` [D(61), 5-Phenyl-oxazole-4-carboxylic acid {3-[4′-amino-2′-(3,4,5-trimethoxy-phenylamino)-[2,5′]bithiazolyl-4-yl]-phenyl}-amide], the inhibition at 1 µM is 9% in experiment [2] and 4% in experiment [5]. For the same compound, the 50% inhibitory concentration (IC50) in experiment [3] is 165 nM; in experiment [4], more than 10000 nM.
Consider `CNC(=O)Nc1nc(N)c(-c2nc(-c3cc(NC(=O)c4cccc(OC)c4)c(F)cc3F)no2)s1` [O(4), N-(5-{5-[4-Amino-2-(3-methyl-ureido)-thiazol-5-yl]-[1,2,4]oxadiazol-3-yl}-2,4-difluoro-phenyl)-3-methoxy-benzamide], for which the inhibition at 0.05 µM in experiment [6] was 87%. This compound also showed a Ki in experiment [1] of 0.19 nM. Further, the inhibition at 1 µM came out at 9% in experiment [2] and 3% in experiment [5]. Also, in experiment [3], half-maximal inhibition (IC50) was put at 0.64 nM.
Consider `COc1cc(Nc2nc(N)c(-c3nc(-c4cc(NC(=O)c5cccc(Cl)c5)c(F)cc4F)no3)s2)cc(OC)c1OC` [D(66), N-(5-{5-[4-Amino-2-(3,4,5-trimethoxy-phenylamino)-thiazol-5-yl]-[1,2,4]oxadiazol-3-yl}-2,4-difluoro-phenyl)-3-chloro-benzamide], for which the inhibition constant (Ki) in experiment [1] is 1 nM. For the same compound, the figures for the inhibition at 1 µM in experiment [2] and in experiment [5] were 55% and 15%, respectively. Besides, the values for the IC50 in experiment [3] and in experiment [4] were 4.2 nM and more than 10000 nM, respectively.
The compound `CNC(=O)Nc1nc(N)c(-c2nc(-c3cccc(NC(=O)c4cccc(Cl)c4)c3)cs2)s1` [F(10), N-{3-[4′-Amino-2′-(3-methyl-ureido)-[2,5′]bithiazolyl-4-yl]-phenyl}-3-chloro-benzamide] had an inhibition constant (Ki) in experiment [1] of 0.14 nM. In addition, the inhibition at 1 µM was determined as 47% in experiment [2] and 42% in experiment [5]. Also, the IC50 in experiment [3] turned out to be 8.5 nM.
In experiment [1], `Cc1cccc(C(=O)Nc2cccc(-c3noc(-c4sc(NC(=O)NC(C)C)nc4N)n3)c2)c1` [F(13), N-(3-{5-[4-Amino-2-(3-isopropyl-ureido)-thiazol-5-yl]-[1,2,4]oxadiazol-3-yl}-phenyl)-3-methyl-benzamide] came in with a Ki of 0.25 nM. For the same compound, the values for the inhibition at 1 µM in experiment [2] and in experiment [5] were 25% and 29%, respectively. The compound further had an IC50 in experiment [3] of 16 nM.
The compound `COc1cccc(C(=O)Nc2ccc(F)c(-c3noc(-c4sc(Nc5cc(OC)c(OC)c(OC)c5)nc4N)n3)c2)c1` [D(72), 3-[2-fluoro-5-[(3-methoxybenzoyl)amino]-phenyl]-5-[2-[(3,4,5-trimethoxyphenyl)amino]-4-amino-5-thiazolyl]-1,2,4-oxadiazole] showed a Ki in experiment [1] of 0.9 nM. Also, the inhibition at 1 µM in experiment [2] came out at 49%; in experiment [5] it was 35%. The figures for the IC50 in experiment [3] and in experiment [4] were 4.7 nM and more than 10000 nM, respectively.
As for `COc1cccc(C(=O)Nc2cc(-c3noc(-c4sc(Nc5cc(OC)c(OC)c(OC)c5)nc4N)n3)c(F)cc2F)c1` [D(67), N-(5-{5-[4-Amino-2-(3,4,5-trimethoxy-pheny-1-amino)-thiazol-5-yl]-[1,2,4]oxadiazol-3-yl}-2,4-difluoro-phenyl)-3-methoxy-benzamide], the inhibition at 1 µM turned out to be 13% in experiment [2] and 1% in experiment [5]. The IC50 in experiment [3] is 4.1 nM; in experiment [4], more than 10000 nM.
As to `CCn1nc(C)cc1C(=O)Nc1ccc(C)c(-c2noc(-c3sc(Nc4cccc(CN5CCCC5)c4)nc3N)n2)c1` [B(9)], the Ki in experiment [1] came out at 0.36 nM. Also, the inhibition at 1 µM worked out at 78% in experiment [2] and 91% in experiment [5].
Regarding `COc1cc(Nc2nc(N)c(-c3nc(-c4cc(NC(=O)c5cccc(Cl)c5)ccc4F)no3)s2)cc(OC)c1OC` [D(73)], the Ki in experiment [1] came out at 1.2 nM. Further, the inhibition at 1 µM in experiment [2] came out at 56%; in experiment [5], 41%. Moreover, the half-maximal inhibitory concentration (IC50) is 6 nM in experiment [3] and 4450 nM in experiment [4].
In experiment [1], `COc1cccc(C(=O)Nc2cc(-c3noc(-c4sc(Nc5ccc(N6CCOCC6)nc5)nc4N)n3)c(F)cc2F)c1` [B(18), N-(5-{5-[4-Amino-2-(6-morpholin-4-yl-pyridin-3-ylamino)-thiazol-5-yl]-[1,2,4]oxadiazol-3-yl}-2,4-difluoro-phenyl)-3-methoxy-benzamide] registered a Ki of 0.9 nM. In addition, the figures for the inhibition at 1 µM in experiment [2] and in experiment [5] were 8% and less than 0%, respectively. The results for the half-maximal inhibitory concentration (IC50) in experiment [3] and in experiment [4] were 10 nM and 1900 nM, respectively.
In experiment [1], `COc1cccc(C(=O)Nc2cc(-c3csc(-c4sc(NC(=O)NCCCN5CCCC5=O)nc4N)n3)c(F)cc2F)c1` [O(15), N-[5-(4′-Amino-2′-{3-[3-(2-oxo-pyrolidin-1-yl)-propyl]-ureido}-[2,5′]bithiazolyl-4-yl)-2,4-difluoro-phenyl]-3-methoxy-benzamide] gave an inhibition constant Ki of 0.5 nM. The inhibition at 1 µM in experiment [2] turned out to be 28%; in experiment [5], 2%.
Consider `COc1cc(Nc2nc(N)c(-c3nc(-c4cc(NC(=O)c5cccc(Cl)c5)c(F)cc4Cl)no3)s2)cc(OC)c1OC` [D(69), N-(5-{5-[4-Amino-2-(3,4,5-trimethoxy-phenylamino)-thiazol-5-yl]-[1,2,4]oxadiazol-3-yl}-4-chloro-2-fluoro-phenyl)-3-chloro-benzamide], for which the affinity in experiment [1] corresponds to a Ki of 0.5 nM. In addition, the figures for the inhibition at 1 µM in experiment [2] and in experiment [5] were 78% and 79%, respectively. The IC50 stood at 15 nM in experiment [3] and 2300 nM in experiment [4].
